Data: patent US20240041878A1, “APELIN RECEPTOR MODULATORS FOR TREATMENT OF A DISORDER OR DISEASE ASSOCIATED WITH BBB PERMEABILITY” (BioAge Labs, Inc., priority 2022, published 2024)

Tested on: aged mice with TBI
Assay: Traumatic brain injury (TBI) model in aged mice, controlled cortical impact
Assay type: in vivo, mouse
Conditions: given orally before and/or after controlled cortical impact
Text: This study assessed the effects of BGE-105 on mitigating the effects of CNS damage and inflammation, and accelerating functional recovery, in a mouse model of TBI.
BGE-105 is given orally to aged mice at various potential doses for a period of time before and/or after controlled cortical impact (model of TBI in mice); during the experimental period, mice undergo various behavioral assessments to understand whether BGE-105 treatment affected motor and cognitive functions known to be impaired by TBI. After, the brains of mice are analyzed for neuroinflammatory markers by a variety of histological and biochemical methods

## COc1cccc(OC)c1-n1c(NS(=O)(=O)[C@@H](C)[C@H](C)c2ncc(C)cn2)nnc1-c1cncc(C)c1 [BGE-105, (2S,3R)—N-(4-(2,6-dimethoxyphenyl)-5-(5-methyl-3-pyridinyl)-4H-1,2,4-triazol-3-yl)-3-(5-methyl-2-pyrimidinyl)-2-butanesulfonamide]
  neuroinflammatory markers and neuro-inflammation: decrease of neuroinflammatory markers
